Source: publication PMC6973051, “Proline‐Rich Peptides with Improved Antimicrobial Activity against E. coli, K. pneumoniae, and A. baumannii” (Chemmedchem, 2019)
Ends that are not written are not given here.

Each substance was assayed on E. coli BW25113. Details: BW25113, 18 h.
Type: cell-based, Escherichia coli
Excerpt: The following bacterial strains were used: Escherichia coli BW25113, E. coli BW25113ΔsbmA (JW0368‐1, KEIO collection21); Acinetobacter baumannii ATCC 19606, Klebsiella pneumoniae ATCC 700603, Pseudomonas aeruginosa ATCC 27853 and Staphylococcus aureus ATCC 25923. The pathogenic E. coli EURL‐VTEC A07, E. coli EURL‐VTEC C07, E. coli SSI‐NN14, E. coli EA22, E. coli SSI‐OO15 and E. coli C679‐12 strains were generously provided by the European Union Reference Laboratory for E. coli, Department of Food Safety, Nutrition and Veterinary Public Health, Istituto Superiore di Sanità, Rome, Italy. All the strains were grown overnight in Müller‐Hinton broth (MHB, Difco) at 37 °C, with shaking (140 rpm). The day after, the overnight bacterial cultures were diluted approx. 1 : 40 in fresh MHB and incubated at 37 °C with shaking (140 rpm) until an OD600nm of ≈0.3 was reached. E. coli BW25113ΔsbmA was grown in the presence of 50 μg mL^−1 kanamycin.
Peptides were diluted in 100 μL of MHB to the concentration of 128 μM, dispensed in the first wells of a 96‐wells microtiter plate (round‐bottom) and serially two‐fold diluted with MHB into successive wells in a final volume of 50 μl. Subsequently, 50 μL of a bacterial suspension (5×10^5 CFU mL^−1) were added to each well, halving the final concentration of bacteria and peptides. Bacteria were added to MHB only as bacterial growth‐control, whereas 100 μl of MHB were used to check the medium sterility. The plate was incubated overnight at 37 °C (≈18 hours) and sealed with parafilm to minimise evaporation. The MIC was calculated as the first clear well without bacterial growth. If barely detectable growth was present, the OD600nm of the plate was measured by a multiplate reader Tecan (software Sunrise). The MIC was then calculated as the well whose OD620 was≤1 % of that of the untreated growth control.

Row | Substance | MIC [µM]
1 | AFRPPIRRPPIRPPFYPG-NH2 [R1A] | 48
2 | EFRPPIRRPPIRPPFYPG-NH2 [R1E] | >64
3 | FFRPPIRRPPIRPPFYPG-NH2 [R1F] | 64
4 | GFRPPIRRPPIRPPFYPG-NH2 [R1G] | 32
5 | PFRPPIRRPPIRPPFYPG-NH2 [R1P] | 64
6 | RARPPIRRPPIRPPFYPG-NH2 (C-terminus assumed) [F2A] | 32
7 | RERPPIRRPPIRPPFYPG-NH2 (C-terminus assumed) [F2E] | >64
8 | RFAPPIRRPPIRPPFYPG-NH2 [R3A] | 64
9 | RFEPPIRRPPIRPPFYPG-NH2 [R3E] | >64
10 | RFFPPIRRPPIRPPFYPG-NH2 [R3F] | 64
11 | RFGPPIRRPPIRPPFYPG-NH2 [R3G] | 64
12 | RFPPPIRRPPIRPPFYPG-NH2 [R3P] | 64
13 | RFRAPIRRPPIRPPFYPG-NH2 (C-terminus assumed) [P4A] | 24
14 | RFREPIRRPPIRPPFYPG-NH2 (C-terminus assumed) [P4E] | 64
15 | RFRFPIRRPPIRPPFYPG-NH2 (C-terminus assumed) [P4F] | 8
16 | RFRGPIRRPPIRPPFYPG-NH2 (C-terminus assumed) [P4G] | 8
17 | RFRPAIRRPPIRPPFYPG-NH2 (C-terminus assumed) [P5A] | 64
18 | RFRPEIRRPPIRPPFYPG-NH2 (C-terminus assumed) [P5E] | >64
19 | RFRPFIRRPPIRPPFYPG-NH2 (C-terminus assumed) [P5F] | 32
20 | RFRPGIRRPPIRPPFYPG-NH2 (C-terminus assumed) [P5G] | >64
21 | RFRPPARRPPIRPPFYPG-NH2 (C-terminus assumed) [I6A] | 64
22 | RFRPPERRPPIRPPFYPG-NH2 (C-terminus assumed) [I6E] | >64
23 | RFRPPFRRPPIRPPFYPG-NH2 (C-terminus assumed) [I6F] | 16
24 | RFRPPGRRPPIRPPFYPG-NH2 (C-terminus assumed) [I6G] | >64
25 | RFRPPIARPPIRPPFYPG-NH2 [R7A] | >64
26 | RFRPPIERPPIRPPFYPG-NH2 [R7E] | >64

Row | Substance | MIC [µM]
27 | RFRPPIFRPPIRPPFYPG-NH2 [R7F] | 32
28 | RFRPPIGRPPIRPPFYPG-NH2 [R7G] | >64
29 | RFRPPIPRPPIRPPFYPG-NH2 [R7P] | >64
30 | RFRPPIRAPPIRPPFYPG-NH2 [R8A] | >64
31 | RFRPPIREPPIRPPFYPG-NH2 [R8E] | >64
32 | RFRPPIRFPPIRPPFYPG-NH2 [R8F] | >64
33 | RFRPPIRGPPIRPPFYPG-NH2 [R8G] | >64
34 | RFRPPIRPPPIRPPFYPG-NH2 [R8P] | >64
35 | RFRPPIRRAPIRPPFYPG-NH2 (C-terminus assumed) [P9A] | >64
36 | RFRPPIRREPIRPPFYPG-NH2 (C-terminus assumed) [P9E] | >64
37 | RFRPPIRRFPIRPPFYPG-NH2 (C-terminus assumed) [P9F] | 16
38 | RFRPPIRRGPIRPPFYPG-NH2 (C-terminus assumed) [P9G] | >64
39 | RFRPPIRRPAIRPPFYPG-NH2 (C-terminus assumed) [P10A] | >64
40 | RFRPPIRRPEIRPPFYPG-NH2 (C-terminus assumed) [P10E] | >64
41 | RFRPPIRRPFIRPPFYPG-NH2 [P10F] | 64
42 | RFRPPIRRPGIRPPFYPG-NH2 [P10G] | >64
43 | RFRPPIRRPPARPPFYPG-NH2 (C-terminus assumed) [I11A] | >64
44 | RFRPPIRRPPERPPFYPG-NH2 (C-terminus assumed) [I11E] | >64
45 | RFRPPIRRPPFRPPFYPG-NH2 (C-terminus assumed) [I11F] | 32
46 | RFRPPIRRPPGRPPFYPG-NH2 (C-terminus assumed) [I11G] | >64
47 | RFRPPIRRPPIAPPFYPG-NH2 [R12A] | >64
48 | RFRPPIRRPPIEPPFYPG-NH2 [R12E] | >64
49 | RFRPPIRRPPIFPPFYPG-NH2 [R12F] | >64
50 | RFRPPIRRPPIGPPFYPG-NH2 [R12G] | >64
51 | RFRPPIRRPPIPPPFYPG-NH2 [R12P] | >64
52 | RFRPPIRRPPIRAPFYPG-NH2 [P13A] | >64

Row | Substance | MIC [µM]
53 | RFRPPIRRPPIREPFYPG-NH2 [P13E] | >64
54 | RFRPPIRRPPIRFPFYPG-NH2 [P13F] | 32
55 | RFRPPIRRPPIRGPFYPG-NH2 [P13G] | >64
56 | RFRPPIRRPPIRPAFYPG-NH2 [P14A] | >64
57 | RFRPPIRRPPIRPEFYPG-NH2 [P14E] | >64
58 | RFRPPIRRPPIRPFFYPG-NH2 [P14F] | 32
59 | RFRPPIRRPPIRPGFYPG-NH2 [P14G] | >64
60 | RFRPPIRRPPIRPPAYPG-NH2 (C-terminus assumed) [F15A] | 64
61 | RFRPPIRRPPIRPPEYPG-NH2 (C-terminus assumed) [F15E] | >64
62 | RFRPPIRRPPIRPPFAPG-NH2 [Y16A] | 64
63 | RFRPPIRRPPIRPPFEPG-NH2 [Y16E] | >64
64 | RFRPPIRRPPIRPPFFPG-NH2 [Y16F] | 16
65 | RFRPPIRRPPIRPPFGPG-NH2 [Y16G] | >64
66 | RFRPPIRRPPIRPPFPPG-NH2 [Y16P] | 64
67 | RFRPPIRRPPIRPPFRPG-NH2 [Y16R] | 16
68 | RFRPPIRRPPIRPPFSPG-NH2 [Y16S] | >64
69 | RFRPPIRRPPIRPPFYAG-NH2 [P17A] | 16
70 | RFRPPIRRPPIRPPFYEG-NH2 [P17E] | >64
71 | RFRPPIRRPPIRPPFYFG-NH2 [P17F] | 16
72 | RFRPPIRRPPIRPPFYGG-NH2 [P17G] | 16
73 | RFRPPIRRPPIRPPFYPG-NH2 [wt (SPOT form), reference compound] | 32
74 | RFRPPIRRPPIRPPFYRG-NH2 [258 (SPOT form)] | 8
75 | RFRPPIRRPPIRPPFYSG-NH2 [P17S] | 16
76 | RFRPPIRRPPIRPPGYPG-NH2 (C-terminus assumed) [F15G] | 32
77 | RFRPPIRRPPIRPPPYPG-NH2 (C-terminus assumed) [F15P] | >64
78 | RFRPPIRRPPIRPPRYPG-NH2 (C-terminus assumed) [F15R] | 32

Row | Substance | MIC [µM]
79 | RFRPPIRRPPIRPPSYPG-NH2 (C-terminus assumed) [F15S] | 64
80 | RFRPPIRRPPIRPRFYPG-NH2 [P14R] | 32
81 | RFRPPIRRPPIRPSFYPG-NH2 [P14S] | 64
82 | RFRPPIRRPPIRPWFYPG-NH2 [P14W] | 16
83 | RFRPPIRRPPIRRPFYPG-NH2 [P13R] | 64
84 | RFRPPIRRPPIRSPFYPG-NH2 [P13S] | 64
85 | RFRPPIRRPPIRWPFYPG-NH2 [P13W] | 16
86 | RFRPPIRRPPISPPFYPG-NH2 [R12S] | >64
87 | RFRPPIRRPPIWPPFYPG-NH2 [R12W] | >64
88 | RFRPPIRRPPPRPPFYPG-NH2 (C-terminus assumed) [I11P] | >64
89 | RFRPPIRRPPRRPPFYPG-NH2 (C-terminus assumed) [I11R] | >64
90 | RFRPPIRRPPSRPPFYPG-NH2 (C-terminus assumed) [I11S] | >64
91 | RFRPPIRRPPWRPPFYPG-NH2 (C-terminus assumed) [I11W] | 32
92 | RFRPPIRRPRIRPPFYPG-NH2 [P10R] | >64
93 | RFRPPIRRPSIRPPFYPG-NH2 [P10S] | 64
94 | RFRPPIRRPWIRPPFYPG-NH2 [P10W] | 32
95 | RFRPPIRRRPIRPPFYPG-NH2 (C-terminus assumed) [P9R] | 8
96 | RFRPPIRRSPIRPPFYPG-NH2 (C-terminus assumed) [P9S] | 64
97 | RFRPPIRRWPIRPPFYPG-NH2 (C-terminus assumed) [P9W] | 16
98 | RFRPPIRSPPIRPPFYPG-NH2 [R8S] | >64
99 | RFRPPIRWPPIRPPFYPG-NH2 [R8W] | 32
100 | RFRPPISRPPIRPPFYPG-NH2 [R7S] | >64
101 | RFRPPIWRPPIRPPFYPG-NH2 [R7W] | 64
102 | RFRPPPRRPPIRPPFYPG-NH2 (C-terminus assumed) [I6P] | >64
103 | RFRPPRRRPPIRPPFYPG-NH2 (C-terminus assumed) [I6R] | 16
104 | RFRPPSRRPPIRPPFYPG-NH2 (C-terminus assumed) [I6S] | 64

Same assay, conditions: single-substitution library by SPOT‐synthesis (unpurified); MHB, ≈18 hours, 37 °C; median of n≥3

Row | Substance | MIC [µM]
105 | RFRPPIRRPPIRPPFYPG-NH2 [wt (SPOT form), reference compound] | 16
